Where two headings read alike, the source gives them in different places.
Columns and labels:
restenosis = conditions: patients; limiting toxicity; cited from earlier work
[1] = Colchicine blood/plasma level in humans; assay type: in vivo; conditions: 1 mg/day human; read-out: Peak plasma concentration
Method: (§1) Bochner et al., Handbook of Clinical Pharmacology, Little, Brown and Co., Boston (1983), pp. 151-152. […] Thus, the concentration of colchicine in rabbits shown to prevent restenosis was 14 times the concentration achieved in the clinical trial. The compounds of invention can be prepared in the above-described compatible binding media up to 100 μM, i.e., 1400 times the concentration shown to be effective in the animal study, and delivered directly to the arterial wall by catheter during an angioplasty procedure.

[2] = 1 mg/day human; cited from earlier work
A10 cells = assay: Antiproliferative activity on A10 cells after one 10 minute application; assay type: cell-based, rat; conditions: for Cell count: 10 minute application; for activity at 10 µM: Rattus norvegicus, read-out: % of Vehicle Maximum
Method: To determine the antiproliferative action of the compounds of invention, in vitro studies were performed using A10 cells, a clonal cell line originally derived from the thoracic aorta of embryonic rats, that proliferate as myoblasts and develop into cells which phenotypically resemble smooth muscle cells (B. Kimes and B. Brandt, Exptl. Cell Res. 98:349 (1976). Typically, twelve-well plates were seeded with 2500-10,000 A10 cells/cm^2 in Dulbecco's Modified Eagles Medium (DMEM) with 10% fetal calf serum (FCS) and allowed to adhere and stabilize for 24 hours at 37° C. Test substances were then prepared in the required concentrations in appropriate cell binding media and, after aspirating the plating medium, applied to the individual wells at 37° C. for a period of only 10 minutes. The treatments were then aspirated, the wells washed 4 times with non-treatment containing medium and then placed in non-treatment containing DMEM with 10% FCS for the duration of the study. At various times after treatment application, triplicate wells were aspirated, the aspirate saved, and the wells treated with 0.25 ml of 0.25% trypsin to release the adherent cells. The enzymatic action of trypsin on the cells was stopped by addition of excess protein (1.75 ml DMEM+10% FCS), the aspirate returned to the wells, and an aliquot of the resultant cell suspension counted in a Coulter Counter (Model ZM with Sampling Stand II). Cell count was normalized to cells per square centimeter of growing area (surface area of well bottom).

[3] = Colchicine plasma concentration in rabbits (estimated); assay type: in vivo; conditions: rabbit 0.2 mg/kg/day vs human 1 mg/day
Method: as §1

membrane ghosts = assay: Membrane binding stability (MBS) assay in membrane ghosts with 5% albumin; conditions: 24 hours; for MBS (% of max.): Table II; for MBS: Table III
Description: Determination of Membrane Binding Stability
For example, very stable binding to membranes might be required for applications such as delivery of therapeutic radionuclides to tumor sites, as loss of compound could lead to the radionuclide producing its toxic effect at non-tumor sites. On the other hand, more rapid loss of compound from biomembranes may be desirable for application involving controlled delivery rates of therapeutic agents. Accordingly, there is described hereinbelow an assay for determining MBS under conditions approximating those found in vivo.
In carrying out this assay, approximately physiological concentrations of serum albumin (5%) are used. […] To better approximate the effects of large fluid volumes to which labelled cells are exposed in vivo, the assay for MBS is carried out by suspending a decreasing number of labeled membrane ghosts in a fixed volume of albumin-containing saline. At 24 hours, the total amount of label present is determined by sampling the well mixed suspension; subsequently, the membrane ghosts are pelleted by centrifugation and the amount of label released into the supernatant is determined and expressed as a percent of total label. Percent retention is plotted against number of ghosts per ml. of suspension, and MBS is determined as the area under the curve between 5×10^7 ghosts/ml. and 4×10^8 ghosts/ml.

[4] = In vivo loss of dye from labeled, reinjected erythrocytes; conditions: rabbit, iv
Description: (§2) *Half life for loss of dye from rabbit erythrocytes after labeling and

[5] = system: red blood cell ghosts (plasma membrane); assay: Membrane retention coefficient (MRC) in red blood cell ghosts; assay type: binding; conditions: 24 hr; Table II
Method: Determination of Membrane Retention Coefficient
The membrane retention coefficient (MRC) provides information regarding how well a given compound is retained in the plasma membrane of a cell and is determined as described below.
Generation of red blood cell ghosts for use as a model membrane is achieved by centrifuging whole blood at 300×g for 15 minutes, removal of the plasma and resuspension of the cell pellet in 0.83% (w/v) ammonium chloride. The ghosts are pelleted from the ammonium chloride by centrifuging at 10,000×g for 10 minutes. This ammonium chloride washing procedure is repeated a minimum of five times to insure that complete release of hemoglobin from the cells has occured. The ghosts are labeled with the compound in question at a concentration allowing for detection of the labeled ghosts by instrumental analysis or fluorescent microscopic methods, and at a concentration similar to those that would be used to label cells for a specific application as described above. For the determinations hereinbelow stock solutions of the compounds in question were prepared in ethanol at a molar concentration of 2×10^-3, and working dilutions of the compounds were prepared in iso-osmotic sucrose (52 g/500 ml distilled water). After incubation of the ghosts at an approximate concentration of 1×10^9 ghosts/ml in the working dilutions of the compounds for 10 minutes, the samples were centrifuged at 10,000×g to pellet the ghosts and the staining solution was aspirated from the samples. The labeled ghosts were resuspended in 1 ml of phosphate buffered saline solution containing 10% fetal bovine serum (PBS-FBS). Triplicate 20 ul aliquots were removed from each sample for the determination of the amount of total compound present. The samples were centrifuged as described above and triplicate 20 ul aliquots were removed from the supernatant for quantitative determination of amount of unbound compound present.
After sampling, the supernatant was aspirated and the red cell ghost pellet was resuspended in 1.0 ml of the PBS-FBS, which was once again sampled as described above. This procedure was repeated at least six times, allowing for detection of rapidly released compounds and was monitored after times equal to or greater than 24 hours to allow for the detection of more slowly released compounds. For the determination of the amount of compound present in each sample, the 20 ul aliquots were extracted into 3.0 ml of n-butanol by shaking. The samples were centrifuged at 3000×g to remove membrane debris and the butanol fractions were assayed for compound concentration. Fluorescent compounds are assayed in this manner using peak excitation and emission wave lengths for the particular compounds being assayed to determine the fluorescence units for each sample.
The determination of the amount of compound present in each sample as described above allows for the calculation of the MRC for each washing or fixed time point. The value is obtained by the following formula: […]
wherein CT represents the amount of compound present (in units determined by the method used to assay the compound) in the total sample and CS represents the amount of compound present in the supernatant sample for that particular time point. The comparison of the MRC values defines criteria for identification of the compounds of this invention, these criteria being: 1) the MRC values determined for each washing steps should have a value of at least about 90 and 2) the percent difference between MRC values over at least a 24 hour time period should be less than about 10%. [drawing 14]
The data provided in Table I below are the results from one experiment and serve as an example of the MRC determination. […]

rabbit erythrocytes = conditions: iv
Description: as §2

In the case of COc1cc2c(c(OC)c1OC)-c1ccc(OC)c(=O)cc1[C@@H](NC(C)=O)CC2 [Colchicine, colchicine], the Maximum tolerated dose (restenosis) is given as ≤ 1 mg/day, the Cmax [1] is given as 5 nM and the Peak plasma concentration [2] is given as 2 ng/mL. For the same compound, the Cell count (A10 cells; 10 μM, day 0) was 3006.53 cells per square centimeter, the Cell count (A10 cells; 10 μM, day 1) was 3778.07 cells per square centimeter and the Cell count (A10 cells; 10 μM, day 2) was 4249.35 cells per square centimeter. For the same compound, the Cell count (A10 cells; 10 μM, day 3) was 7785.90 cells per square centimeter, the Cell count (A10 cells; 10 μM, day 6) was 57626.63 cells per square centimeter and the Cell count (A10 cells; 10 μM, day 7) was 118127.94 cells per square centimeter. For the same compound, the “% of Vehicle Maximum” value (A10 cells; 10 μM, day 0, 0 min) was 1.44%, the activity at 10 µM (A10 cells; A10, 24 h, 10 μM, day 1) was 1.81% and the activity at 10 µM (A10 cells; A10, 48 h, 10 μM, day 2) was 2.04%. For the same compound, the activity at 10 µM (A10 cells; A10, 72 h, 10 μM, day 3) was 3.73%, the activity at 10 µM (A10 cells; A10, 144 h, 10 μM, day 6) was 27.6% and the activity at 10 µM (A10 cells; A10, 168 h, 10 μM, day 7) was 56.6%. For the same compound, the “Cell density relative to vehicle-treated cells” value (A10 cells; day 7) was “only one-half the cell density of vehicle-treated cells”, the “Increase in cell number over that with the colchicine conjugate” value (A10 cells; day 7) was “approximately 10 fold” and the “Colchicine concentration in rabbits vs clinical trial” value [3] was 14 times.
For CCCCCCCCCCCCCCN1C(=CC=CC2=[N+](CCCCCCCCCCCCCC)c3ccccc3C2(C)C)C(C)(C)c2ccccc21 [R], the “MBS (% of max.)” value (membrane ghosts) was 55 ± 1.7 % of max, the MBS (membrane ghosts) was 55 ± 1.6% and the half-life [4] was 36 days. For the same compound, the “MRC# (at 24 hr.)” value [5] was 87 ± 0.6.
With CCCCCCCCCCCCCCCCCCCCCC[N+]1=C(C=CC=C2N(CCCCCCCCCCCC)c3ccccc3C2(C)C)C(C)(C)c2ccccc21 [P] the “In vivo membrane half-life” value (rabbit erythrocytes) was 1.4 days, the “MBS (% of max.)” value (membrane ghosts) was 48 ± 3.1 % of max and the “MRC# (at 24 hr.)” value [5] was 65 ± 2.0.
In the case of CCCCCCCCCCCCCCCCN1C(=CC=CC2=[N+](CCCCCCCCCCCCCCCC)c3ccccc3C2(C)C)C(C)(C)c2ccccc21 [S], the “MBS (% of max.)” value (membrane ghosts) is reported as 79 ± 3.7 % of max, the half-life [4] is reported as 58 days and the “MRC# (at 24 hr.)” value [5] is reported as 87 ± 1.2.
For CCCCCCCCCCCC[N+]1=C(C=CC=C2N(CCCCCCCCCC)c3ccccc3C2(C)C)C(C)(C)c2ccccc21 [Compound 0], the “In vivo membrane half-life” value (rabbit erythrocytes) was < 1 days, the “MBS (% of max.)” value (membrane ghosts) was 19 ± 3.5 % of max and the “MRC# (at 24 hr.)” value [5] was 30 ± 4.7.
In the case of CCCCCCCCCCCCCC[N+]1=C(C=CC=C2N(CCC)c3ccccc3C2(C)C)C(C)(C)c2ccccc21 [Q], the “In vivo membrane half-life” value (rabbit erythrocytes) is reported as 10 ± 0.7 days, the “MBS (% of max.)” value (membrane ghosts) is reported as 41 ± 5.0 % of max and the MBS (membrane ghosts) is reported as 42 ± 5.7%. For the same compound, the “MRC# (at 24 hr.)” value [5] was 85 ± 0.6.
